{"source": "patent US8618065B2", "about": "(Max-Planck-Gesellschaft zur Foerderung der Wissenschaften …, priority 2009, dated 2013)", "key": {"OVA/alum-sensitized mice": {"tested_on": "OVA/alum-sensitized mice", "experiment": "Asthma studies: ovalbumin sensitization, bronchial lavage, FACS", "assay_type": "in vivo, mice (BALE/c line)", "experimental": "An immune response to ovalbumin was provoked by administering ovalbumin together with aluminium hydroxide. The immune response can be tracked with the help of the T helper cells population (CD4+) which has migrated into the bronchial lining and the eosinophilic granulocytes which have migrated in.\nFemale mice (BALE/c line) were sensitized by intraperitoneal (i.p.) administration of 50 μg ovalbumin (OVA) dissolved in phosphate buffer (PBS) plus 100 μL aluminium hydroxide (alum) with a total volume of 200 μL per mouse on day 0.100 μg OVA in PBS (50 μL total volume) in each case was then administered intranasally to the OVA/alum-sensitized mice under mild anaesthesia (isoflurane) on days 7 to 10. From these animals groups were formed which additionally received on days 7, 9, and 11 either 250 μg Cs-103 in PBS (i.p.), PBS only (diluent) or no further addition (−). On day 12 all the animals were killed by CO2 exposure and cells of the bronchial tract were obtained by bronchial lavage (BAL) by means of a cannula introduced into the trachea washing three times each with 1 ml cold PBS. The obtained cells of the BAL were then double dyed (a) with Cy-Chrome-conjugated anti-mouse CD4-antibodies and (b) with FITC-conjugated anti-mouse CD62L-antibodies. The cells were then analyzed by means of FACS. Effector/Memory […] T cells were distinguished as CD4^+/CD62L^− lymphocytes and eosinophilic cells with the help of their scattered light properties (FSC/SSC)."}, "[1]": {"experiment": "Toxicity test: leukocyte count in blood and spleen", "assay_type": "in vivo, mice", "conditions": "three doses of 250 μg on 1st, 3rd and 5th day, cell count on 6th day; FIGS. 4 and 5", "experimental": "FIG. 4 the number of leukocytes in the blood before and after administering three doses (1st, 3rd and 5th day) of 250 μg Cs-103 to each animal (determination on the 6th day); and\nFIG. 5 the number of leukocytes in the spleen before and after administering three doses (1st, 3rd and 5th day) of 250 μg Cs-103 to each animal (determination on the 6th day).\nAs the leukocyte count in blood and spleen increases in the case of inflammatory diseases, the number of these cells was used as toxicity marker. As FIGS. 4 and 5 show, the selected compound Cs-103 (after administering three doses of 250 μg Cs-103, on the 1st, 3rd and 5th day, and cell count determination on the 6th day) is harmless in this assay."}, "[2]": {"conditions": "blood cells vs plasma; cited from earlier work"}}}
{"smiles": "CC[C@@H]1NC(=O)[C@H]([C@H](O)[C@H](C)CCN(CCC(=O)N[C@H](CCC(=O)O)C(=O)N[C@H](CCC(=O)O)C(=O)N[C@H](CCC(=O)O)C(=O)N[C@H](CCC(=O)O)C(=O)N[C@H](CCC(=O)O)C(=O)N[C@H](CCC(=O)O)C(=O)NCC(=O)O)C(C)=O)N(C)C(=O)[C@H](C(C)C)N(C)C(=O)[C@H](CC(C)C)N(C)C(=O)[C@H](CC(C)C)N(C)C(=O)[C@@H](C)NC(=O)[C@H](C)NC(=O)[C@H](CC(C)C)N(C)C(=O)[C@H](C(C)C)NC(=O)[C@H](CC(C)C)N(C)C(=O)CN(C)C1=O", "note": "[Cs-103]", "values": [{"measurement": "number of eosinophilic granulocytes in the lung lavage fluid", "setting": "OVA/alum-sensitized mice; 250 μg Cs-103, FIG. 3", "value": "very significantly reduced"}, {"measurement": "number of eosinophilic granulocytes which migrated through ovalbumin sensitization into the bronchial lining", "setting": "OVA/alum-sensitized mice; 250 μg Cs-103, control: OVA-sensitized animals, FIG. 2", "value": "very significantly reduced"}, {"measurement": "number of CD4-positive T cells which migrated through ovalbumin sensitization into the bronchial lining", "setting": "OVA/alum-sensitized mice; 250 μg Cs-103 i.p. on days 7, 9, 11, control: OVA-sensitized animals, FIG. 1", "value": "very significantly reduced"}, {"measurement": "leukocyte count in blood and spleen as toxicity marker", "setting": "[1]", "value": "harmless"}]}
{"smiles": "C/C=C/C[C@@H](C)[C@@H](O)[C@H]1C(=O)N[C@@H](CC)C(=O)N(C)CC(=O)N(C)[C@@H](CC(C)C)C(=O)N[C@@H](C(C)C)C(=O)N(C)[C@@H](CC(C)C)C(=O)N[C@@H](C)C(=O)N[C@H](COCCO)C(=O)N(C)[C@@H](CC(C)C)C(=O)N(C)[C@@H](CC(C)C)C(=O)N(C)[C@@H](C(C)C)C(=O)N1C", "note": "[SDZ IMM 125]", "values": [{"measurement": "concentration in blood cells relative to surrounding plasma", "setting": "[2]", "value": "approximately 8 ×"}]}
